Residues, ends and D or L forms follow the SMILES beside them. *: point of attachment. Boc = CC(C)(C)OC(=O)*; Bn = c1ccc(C*)cc1
Structure (SMILES)	melting point
CC(C)(Cc1ccc(S(=O)(=O)CCc2c(CCNS(=O)(=O)Cc3ccc(Cl)c(Cl)c3)n(C(c3ccccc3)c3ccccc3)c3ccc(Cl)cc23)cc1)C(=O)O	207 to 208 °C
O=C(c1ccc(I)cc1)c1cc2c3c(c1)C(c1cccc(Cl)c1)CC(=O)N3CC2 (stereo not given)	275 °C
CNC(=O)OC(COc1ccc(C(C)(C)c2ccc(OCC(CN3C(=O)NC4(CC(C)(C)NC(C)(C)C4)C3=O)OC(=O)NC)cc2)cc1)CN1C(=O)NC2(CC(C)(C)NC(C)(C)C2)C1=O (stereo not given)	238 to 242 °C
CC(NC(=O)C(Cc1ccc(OCc2ccccc2)cc1)NC(=O)C(COCc1ccccc1)NC(=O)C(Cc1c[nH]c2ccccc12)NC(=O)OC(C)(C)C)C(N)=O (stereo not given) (Boc-WS(Bn)Y(Bn)A-NH2; configuration not given here)	180 to 185 °C
CC(=O)OCC1OC(n2cc(C3=C(c4cn(S(=O)(=O)c5ccccc5)c5ncccc45)C(=O)N(COCc4ccccc4)C3=O)c3cccnc32)C(OC(C)=O)C(OC(C)=O)C1OC(C)=O (stereo not given)	108 to 110 °C
CC(C)CC1C(=O)OC(Cc2ccc(OCc3ccco3)cc2)C(=O)N(C)C(CC(C)C)C(=O)OC(C)CN(C)C(CC(C)C)C(=O)OC(Cc2ccc(OCc3ccco3)cc2)C(=O)N(C)C(CC(C)C)C(=O)OC(C)CN1C (stereo not given)	116 to 119 °C
C=C(C)C(=O)OCCCCOC(=O)C(=C)C	-117 °C
CC[C@H](C)[C@H](NC(=O)OCC1c2ccccc2-c2ccccc21)C(=O)N[C@@H](Cc1ccc(OC(C)(C)C)cc1)C(=O)N[C@@H](C)C(=O)NCc1c(OC)ccc2c1Oc1c(ccc(OC)c1CC(=O)OCc1ccccc1)C2(C)C	218 to 220 °C
FC(F)(F)C(F)(F)C(F)(F)C(F)(F)C(F)(F)C(F)(F)c1nc2c(Br)sc(Br)c2nc1C(F)(F)C(F)(F)C(F)(F)C(F)(F)C(F)(F)C(F)(F)F	46 to 47 °C
CC(=O)OCC=C(C)CCC=C(C)CCC=C(C)CCC=C(C)CCC=C(C)CCC=C(C)CCC=C(C)CCC=C(C)CCC=C(C)CCC=C(C)CCC=C(C)C	36 to 37 °C
CCNC(=O)[C@@H](C)NC(=O)[C@H](Cc1c[nH]cn1)NC(=O)[C@H](COCc1ccccc1)NC(=O)[C@H](Cc1ccc(OCc2ccccc2)cc1)NC(=O)[C@H](Cc1c[nH]cn1)NCc1ccccc1	83 to 88 °C
CCCCCCOCC1CN(c2cc3c(cc2F)c(=O)c(C(=O)O)cn3CC)CCN1 (stereo not given)	121 to 124 °C
CCCCOC(=O)Nc1nc(CN(C)C(=O)N[C@H](C(=O)N[C@@H](Cc2ccccc2)C[C@H](O)[C@H](Cc2ccccc2)NC(=O)[C@@H](NC(=O)N(C)Cc2csc(NC(=O)OCCCC)n2)C(C)C)C(C)C)cs1	115 to 120 °C
COC(=O)C(C)NC(=O)C(COCc1ccccc1)NC(=O)C(Cc1ccc(OCc2ccccc2)cc1)NC(=O)C(Cc1c[nH]c2ccccc12)NC(=O)OC(C)(C)C (stereo not given) (Boc-WY(Bn)S(Bn)A-OMe; configuration not given here)	178 to 182 °C
O=[N+]([O-])c1ccc2cn[nH]c(=S)c2c1	233 to 234 °C
O=C(O)CCOC1COCCCC=CC2CC2(C(=O)NS(=O)(=O)C2CC2)NC(=O)C2(NC(=O)Nc3ccccc3)CC(OC(=O)N(CCC(=O)O)c3ccccc3)CN2C1=O (stereo not given)	142 to 144 °C
COc1cc(OC)c(/C=C/C(c2ccc(OC)c(NCCCC(=O)O)c2)S(=O)(=O)C(/C=C/c2c(OC)cc(OC)cc2OC)c2ccc(OC)c(NCCCC(=O)O)c2)c(OC)c1 (stereo not given)	86 to 88 °C
CN1C(C)(C)CC2(CC1(C)C)NC(=O)N(CC(O)COC(=O)CCCCCCCCCCC(=O)OCC(O)CN1C(=O)NC3(CC(C)(C)N(C)C(C)(C)C3)C1=O)C2=O (stereo not given)	53 to 57 °C
Cc1ccc(Cc2cc(OCCCCCCCCCCCCP(=O)(O)O)ccc2S(=O)(=O)c2ccc(OCCCCCCCCCCCCP(=O)(O)O)cc2Cc2ccc(C)cc2)cc1	148 to 150 °C
C=C1C(n2ccc(NC(=O)CCCCCCCCCCCCCCCCC)nc2=O)OC(COC(=O)CCCCCCCCCCCCCCCCC)C1(O)C(=O)CCCCCCCCCCCCCCCCC (stereo not given)	92 to 96 °C
O=C(Oc1ccc2c(OC(=O)c3ccc(OCc4ccccc4)cc3)c3cc(OC(=O)c4ccc(OCc5ccccc5)cc4)ccc3cc2c1)c1ccc(OCc2ccccc2)cc1	219 to 221 °C
CN=S(=O)(Cc1ccc(C(F)(F)F)nc1)c1nc(-c2ccc(OC)cc2)cs1 (stereo not given)	158 to 161 °C
COC(=O)C(C)(C)NC(=O)Nc1ccc(Cl)cc1	135 to 136 °C
CCCCC1(CC)CS(=O)(=O)c2ccc(N(C)C)cc2C(c2cccc(NC(=O)COCCOCC(=O)NCc3ccc(N4C(=O)C(CCC(O)c5ccc(F)cc5)C4c4ccc(OC)cc4)cc3)c2)C1O (stereo not given)	116 to 125 °C
CC(=O)OCC1OC(NC(=O)C2=CC=C(Cl)C(N)([N+](=O)[O-])C2)C(OC(C)=O)C(OC(C)=O)C1OC1OC(COC(C)=O)C(OC(C)=O)C(OC(C)=O)C1OC(C)=O (stereo not given)	115 to 119 °C
CS(C)(=O)=NC(=O)c1cc(Oc2ccc(C(F)(F)F)cc2Cl)ccc1Cl	128 to 131 °C

Now from value to compound:

melting point	Structure (SMILES)
170 to 172 °C	CCCNc1nc2cccc(C(=O)OCC)c2n1Cc1ccc(-c2ccccc2-c2nnn[nH]2)cc1
137 to 140 °C	Cc1ccc2c(c1)CC(=O)N2c1c(F)cc(F)cc1Cl
103 to 105 °C	CC1=NN(CCCc2ccccc2)C(=O)C1
146 to 148 °C	[C-]#[N+]C1(C)Cc2ccccc2C(=C)c2ccccc21 (stereo not given)
191 to 194 °C	CCCc1[nH]c2ccccc2c1C1(c2ccc(N(CC)CC)cc2OCCOCCOc2cc(N(CC)CC)ccc2C2(c3c(CCC)[nH]c4ccccc34)OC(=O)c3ccccc32)OC(=O)c2ccccc21 (stereo not given)
196 to 197 °C	COc1ccccc1C(=C/C=C/C(=O)O)c1ccccc1OC
130 to 131 °C	FC(F)(F)C(F)(F)C(F)(F)C(F)(F)C(F)(F)C(F)(F)C(F)(F)C(F)(F)CCC1(CCC(F)(F)C(F)(F)C(F)(F)C(F)(F)C(F)(F)C(F)(F)C(F)(F)C(F)(F)F)c2cc(Br)ccc2-c2ccc(Br)cc21
127 to 129 °C	O=C(O)Cc1cccc(-c2cc(C(=O)CCCCC(=O)c3ccc(OC4OC(CO)C(O)C(O)C4O)c(-c4cccc(CC(=O)O)c4)c3)ccc2OC2OC(CO)C(O)C(O)C2O)c1 (stereo not given)
142 to 148 °C	COc1ccc(N2C(=O)C3Cc4[nH]cnc4CN3C2=O)cc1 (stereo not given)
159 to 160 °C	COCCOc1ccc(/C=C(\C)C(=O)NS(=O)(=O)CC(F)(F)F)c(Oc2ncc(C(F)(F)F)cc2Cl)c1
272 to 275 °C	C=Cc1cc(C=Cc2cc(C=Cc3cc(C(C)(C)C)cc(C(C)(C)C)c3)cc(C=Cc3cc(C(C)(C)C)cc(C(C)(C)C)c3)c2)cc(C=Cc2cc(C=Cc3cc(C(C)(C)C)cc(C(C)(C)C)c3)cc(C=Cc3cc(C(C)(C)C)cc(C(C)(C)C)c3)c2)c1
> 300 °C	O=C1c2cc(Sc3ccc(Cl)cc3)c(Sc3ccc(Cl)cc3)cc2C(=O)c2c1c(O)c1cc(Sc3ccc(Cl)cc3)c(Sc3ccc(Cl)cc3)cc1c2O
110 to 130 °C	CC(=O)Nc1c(I)c(C(=O)N(C)CC(O)C(O)C(O)C(O)CO)c(I)c(N(C)C(C)=O)c1I (stereo not given)
176 to 178 °C	CC(C)[C@H](NC(=O)N(C)Cc1nccs1)C(=O)N[C@@H](Cc1ccccc1)[C@@H](O)[C@H](O)[C@H](Cc1ccccc1)NC(=O)[C@@H](NC(=O)N(C)Cc1nccs1)C(C)C
204 °C	NC(=O)c1cnn(-c2ncc(C(F)(F)F)cc2Cl)c1NC(=O)C1(F)CC1
160 to 165 °C	CC1=C(CC(=O)O)c2cc(C#N)ccc2C1=Cc1ccc(S(C)=O)cc1 (stereo not given)
112 to 114 °C	CC(C)CCCC(C)C1CCC2C3CC=C4CC(N(CCCNC(=O)CCNC(=O)CNC(=O)OCC5c6ccccc6-c6ccccc65)C(=O)OC(C)(C)C)CCC4(C)C3CCC12C (stereo not given)

melting point	Structure (SMILES)
206 to 208 °C	C=Cc1cccc2c(=O)c(C(=O)CCC)c[nH]c12
< 25 °C	CCSC(C)CC1CC(=O)C(=C(CC)NOCC=CCl)C(=O)C1 (stereo not given)
155 °C	COc1cc2c(cc1-c1cc3c4cc(-c5ccccc5)ccc4n(CCC(C)CCCC(C)C)c3cc1OC)c1cc(-c3ccccc3)ccc1n2CCC(C)CCCC(C)C (stereo not given)
116 to 118 °C	Cc1ccccc1CNC(=O)[C@H]1N(C(=O)[C@@H](O)[C@H](Cc2ccccc2)NC(=O)C(C)C(C)C(=O)OC[C@H]2O[C@@H](n3cc(C)c(=O)[nH]c3=O)CC2N=[N+]=[N-])CSC1(C)C (stereo not given in full)
141 to 143 °C	CC[C@H](C)CNC(=O)[C@@H](C[C@H](O)[C@H](CC1CCCCC1)NC(=O)[C@H](Cc1cscn1)NC(=O)[C@H](Cc1cccc2ccccc12)NC(=O)CN1CCOCC1)C(C)(C)O
73 to 75 °C	CCCC(=O)C(=CNc1ccc(COC(=O)c2ccccc2)cc1)C(=O)OCC
187 to 190 °C	CCC(C)CNC(=O)C(CC(O)C(CC(C)C)NC(=O)C(Cc1cscn1)NC(=O)C(CC(=O)N(C)C1CCCCC1)Cc1cccc2ccccc12)C(C)(C)O (mixture of isomers)
129 to 132 °C	CC1(C)CC(O)(C#N)CC(C)(C)N1
199 °C	COc1cc(C2c3cc4c(cc3C(NC(=O)CNCCCCN(CCCNC(=O)OCc3ccccc3)C(=O)OCc3ccccc3)C3COC(=O)C23)OCO4)cc(OC)c1O (stereo not given)
94 to 96 °C	COc1cc(OC)c(/C=C/C(c2ccc(OC)c(OC)c2OC)S(=O)(=O)C(/C=C/c2c(OC)cc(OC)cc2OC)c2ccc(OC)c(OC)c2OC)c(OC)c1 (stereo not given)
208 to 210 °C	Cc1ccccc1-n1c(-c2cc(-c3ccncc3)c(N3CCOCC3)s2)nc2ccccc2c1=O
291 to 293 °C	CC(C)(C)c1cc(CCC(=O)NN=C(O)c2cc(-c3ccc(C(=O)O)c(C(O)=NNC(=O)CCc4cc(C(C)(C)C)c(O)c(C(C)(C)C)c4)c3)ccc2C(=O)O)cc(C(C)(C)C)c1O
178 to 180 °C	CC(=O)OCC1OC(OC2C(COC(C)=O)OC(OC3C(CO)OC(OCCBr)C(O)C3O)C(OC(C)=O)C2OC(C)=O)C(OC(C)=O)C(OC(C)=O)C1OC(C)=O (stereo not given)
96 to 98 °C	CCCCCCCCCCCCCCCCCCN(CCCCCCCCCCCCCCCCCC)C(=O)c1cc(NS(=O)(=O)c2ccc(NN)nc2)c2ccccc2c1O
160 to 162 °C	CCC(CC)Nc1cc(C)nc(Oc2c(C)cc(C)cc2C)c1[N+](=O)[O-]
5.2 °C	CCOCCCO
101 to 103 °C	CC(C)CCCC(C)C1CCC2C3CC=C4CC(NCCCCC(=O)NCCC(=O)NCCC(=O)NCCCCC(C(=O)O)N(CC(=O)O)CC(=O)O)CCC4(C)C3CCC12C (stereo not given)

From a melting point compilation (Tetko et al.)
